Test: TGA test of thermal stability of emulsifier fatty acids
Format: physicochemical
Conditions: for Thermal stability (TGA comparison): result in words; for Temperature at which loss of 5% by weight (w/w) occurs / Temperature at which loss of 50% by weight (w/w) occurs: Table 2
Excerpt: The present inventors first performed a process of selecting emulsifier candidates to substitute for a conventionally used fatty acid-based emulsifier so as to change the emulsifier among the aforementioned materials, and then selected an emulsifier having relatively high thermal stability through a boiling point test and a TGA test in accordance with the purpose of the present invention of reducing the amount of gas generated in high-temperature extrusion and injection-molding processes.
FIG. 2 illustrates TGA test comparison results of hydrogenated ricinoleic acid as a chain-type fatty acid including a functional group according to the present invention, stearic acid as saturated fatty acid not including a branch group or a functional group, and fatty acid (FAD acid: mixture of palmitic acid, oleic acid, and stearic acid) included in a conventionally used fatty acid-based emulsifier.

SMILES	Loss amount at 270° C. (TGA, 270° C., Table 1)	Temperature at which loss of 10% by weight occurs (TGA, Table 1)	Thermal stability (TGA comparison)	Temperature at which loss of 5% by weight (w/w) occurs (TGA)	Temperature at which loss of 50% by weight (w/w) occurs (TGA)
CCCCCC[C@@H](O)C/C=C\CCCCCCCC(=O)O [Ricinoleic acid, ricinoleic acid]	9% by weight	273° ° C.	superior to fatty acid		
CCCCCCCCCCCCCCCCCC(=O)O [Stearic acid, stearic acid, reference compound]				237 °C	289 °C
CCCCCCC(O)CCCCCCCCCCC(=O)O (centres unmarked) [Hydrogenated ricinoleic acid, 12-hydroxy octadecanoic acid]			superior to stearic acid and fatty acid	263 °C	455 °C

Reference: patent US10508168B2, “Thermoplastic polymer, method of preparing thermoplastic polymer, and thermoplastic polymer composition including thermoplastic polymer” (LG CHEM, LTD., priority 2015, dated 2019)
